Data reported in patent US20220062330A1, “USE OF THIOSULFATE TO POTENTIATE THE ANTI-PATHOGENIC EFFECT OF LACTOBACILLI” (NEXBIOME THERAPEUTICS, priority 2012, published 2022).

Tested on: Candida albicans
Conditions: sodium thiosulfate alone in MRS medium, 1 g/l and 3 g/l, regardless of the concentration studied

Compound: O=S(O)(O)=S [sodium thiosulfate]
- antifungal potential on Candida albicans growth: No antifungal potential
